The results in this text go back to patent US5948749A, “Pharmaceutical preparations for intranasal administration” (Fuji Yakuhin Company, Limited, priority 1996, dated 1999).

The series relates to ophthalmic mucous membrane. Particulars: rabbit, in vivo. The protocol: The testing method of the present test was based on the guidelines given by OECD. That means, 3 rabbits were used in this study, and a test drug was administered once into one eye of a rabbit in the conjunctival sac, and the other eye was used as control. […] Eyes were washed using lukewarm water of about 35° C. at the observation 24 hours after the administration. Scores of the conjunctival reaction obtained by administration of each test drug were calculated according to the assessment criteria of Draize method. The maximum of total score at each observation time was obtained for each test drug and for each test animal, and the average was calculated, then irritation evaluation in 8 stages (FIG. 9) was carried out according to the Kay and Calandra ophthalmic mucous membrane irritation classification method.

Take sodium polystyrene sulphonate: the “Kay and Calandra ophthalmic mucous membrane irritation classification (8 levels)” value is given as “Moderately irritating”; the “average value (score) of the maximum Draize score” value is 29.0.
